Measurements: the Kinase Knowledgebase extract (Sharma et al. 2016)
pIC50: −log10 of the molar value.

Each compound was assayed against PIK3CG (human) (UniProt P48736) (assay: Assessment of PIK3CG Kinase Activity).
PIK3CG (human), sequence (P48736 whole entry, looked up): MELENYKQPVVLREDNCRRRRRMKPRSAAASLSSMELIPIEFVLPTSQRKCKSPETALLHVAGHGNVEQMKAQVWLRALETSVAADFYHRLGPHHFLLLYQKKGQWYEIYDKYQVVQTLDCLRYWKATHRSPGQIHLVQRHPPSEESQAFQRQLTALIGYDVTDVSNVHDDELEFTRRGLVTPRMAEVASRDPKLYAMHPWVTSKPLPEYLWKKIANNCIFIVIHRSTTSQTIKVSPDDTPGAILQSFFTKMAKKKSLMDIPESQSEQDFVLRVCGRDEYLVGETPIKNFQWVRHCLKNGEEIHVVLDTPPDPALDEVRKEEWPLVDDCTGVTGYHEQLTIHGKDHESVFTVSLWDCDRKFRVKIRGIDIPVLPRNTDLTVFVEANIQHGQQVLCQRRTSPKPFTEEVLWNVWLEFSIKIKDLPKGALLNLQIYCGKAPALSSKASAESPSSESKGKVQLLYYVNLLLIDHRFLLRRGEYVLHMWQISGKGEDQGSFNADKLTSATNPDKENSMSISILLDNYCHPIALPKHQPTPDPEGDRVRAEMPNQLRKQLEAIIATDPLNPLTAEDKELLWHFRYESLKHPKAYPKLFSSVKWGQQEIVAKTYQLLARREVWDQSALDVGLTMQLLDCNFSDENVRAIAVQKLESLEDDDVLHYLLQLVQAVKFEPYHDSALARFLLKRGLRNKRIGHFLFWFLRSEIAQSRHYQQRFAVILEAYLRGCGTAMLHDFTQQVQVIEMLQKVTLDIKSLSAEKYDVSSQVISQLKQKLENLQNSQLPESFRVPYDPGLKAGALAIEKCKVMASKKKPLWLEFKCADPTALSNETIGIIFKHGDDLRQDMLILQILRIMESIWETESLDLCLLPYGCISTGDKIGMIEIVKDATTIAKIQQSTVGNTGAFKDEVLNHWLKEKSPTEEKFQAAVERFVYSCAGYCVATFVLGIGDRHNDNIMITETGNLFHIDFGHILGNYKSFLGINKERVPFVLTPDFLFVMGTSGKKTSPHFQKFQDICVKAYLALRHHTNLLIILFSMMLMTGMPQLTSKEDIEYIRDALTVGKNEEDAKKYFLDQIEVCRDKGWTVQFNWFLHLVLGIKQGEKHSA

pIC50, > 6.10:
O=C(NCC1CCCCC1)Nc1nc2c(s1)-c1nc(-c3ccccc3Cl)ncc1CC2, Cn1cc(CNC(=O)Nc2nc3c(s2)-c2nc(-c4ccccc4F)ncc2CC3)cn1, CN1CCC(O)C2(CCCN(C(=O)Nc3nc4c(s3)-c3nc(-c5ccccc5Cl)ncc3CC4)C2)C1 (configuration not stated), CC(C)OCCNC(=O)Nc1nc2c(s1)-c1nc(-c3ccccc3Cl)ncc1CC2, CCc1nnc(CCNC(=O)Nc2nc3c(s2)-c2nc(-c4ccccc4Br)ncc2CC3)o1, COc1cccc(CNC(=O)Nc2nc3c(s2)-c2nc(-c4ccccc4Cl)ncc2CC3)c1, Nc1c(Br)cc(OCC2CCN(C(=O)Nc3nc4c(s3)-c3nc(-c5ccccc5Cl)ncc3CC4)C2)cc1Br (configuration not stated), CC(C)C(=O)Nc1cccc(CNC(=O)Nc2nc3c(s2)-c2nc(-c4ccccc4Cl)ncc2CC3)c1, CC(C)(C)OC(=O)NCc1cccc(CNC(=O)Nc2nc3c(s2)-c2nc(-c4ccccc4Cl)ncc2CC3)c1, CC(C)(C)CNC(=O)CCNC(=O)Nc1nc2c(s1)-c1nc(-c3ccccc3Cl)ncc1CC2, CC(C)c1nnc(CCNC(=O)Nc2nc3c(s2)-c2nc(-c4ccccc4C(F)(F)F)ncc2CC3)o1, O=C(NCc1cccc(N2CCNC2=O)c1)Nc1nc2c(s1)-c1nc(-c3ccccc3Cl)ncc1CC2, CS(=O)(=O)Nc1cccc(CNC(=O)Nc2nc3c(s2)-c2nc(-c4ccccc4Cl)ncc2CC3)c1, NC(=O)Nc1nc2c(s1)-c1nc(-c3ccccc3F)ncc1CC2, NC(=O)N1Cc2ccc(CNC(=O)Nc3nc4c(s3)-c3nc(-c5ccccc5Cl)ncc3CC4)cc2C1, CC(=O)N(C)c1cccc(CNC(=O)Nc2nc3c(s2)-c2nc(-c4ccccc4Cl)ncc2CC3)c1, CN(C)CCNC(=O)Nc1nc2c(s1)-c1nc(-c3ccccc3Cl)ncc1CC2, O=C(NCCC(=O)N1CCCC1)Nc1nc2c(s1)-c1nc(-c3ccccc3Cl)ncc1CC2, O=C(Nc1nc2c(s1)-c1nc(-c3ccccc3Cl)ncc1CC2)N1CC[C@H](NC(=O)N2CCCC2)C1, CN1CCC(CNC(=O)Nc2nc3c(s2)-c2nc(-c4ccccc4Cl)ncc2CC3)CC1, COc1ccc(OC)c(CNC(=O)Nc2nc3c(s2)-c2nc(-c4ccccc4Cl)ncc2CC3)c1, O=C(NCCc1ccc2c(c1)OCCO2)Nc1nc2c(s1)-c1nc(-c3ccccc3Cl)ncc1CC2, CCn1cnc(CCNC(=O)Nc2nc3c(s2)-c2nc(-c4ccccc4Cl)ncc2CC3)c1, CCOCCNC(=O)Nc1nc2c(s1)-c1nc(-c3ccccc3Cl)ncc1CC2, CCc1csc(CCNC(=O)Nc2nc3c(s2)-c2nc(-c4ccccc4Cl)ncc2CC3)n1, CNC(=O)Nc1nc2c(s1)-c1nc(-c3ccccc3Cl)ncc1CC2, CNC(=O)Nc1cccc(CNC(=O)Nc2nc3c(s2)-c2nc(-c4ccccc4Cl)ncc2CC3)c1, CCn1ccc(CNC(=O)Nc2nc3c(s2)-c2nc(-c4ccccc4Cl)ncc2CC3)n1, CN(C)C(=O)CCNC(=O)Nc1nc2c(s1)-c1nc(-c3ccccc3Cl)ncc1CC2, Cn1ccc(CNC(=O)Nc2nc3c(s2)-c2nc(-c4ccccc4Cl)ncc2CC3)n1, CC(C)(C)OC(=O)CC1(O)CCN(C(=O)Nc2nc3c(s2)-c2nc(-c4ccccc4Cl)ncc2CC3)CC1, CNC(=O)Nc1nc2c(s1)-c1nc(-c3cccc(F)c3Cl)ncc1CC2, Cn1cc(CNC(=O)Nc2nc3c(s2)-c2nc(-c4ccccc4Br)ncc2CC3)cn1, COCCNC(=O)Nc1nc2c(s1)-c1nc(-c3ccccc3Cl)ncc1CC2, CCN(CC)C(=O)N[C@H]1CCN(C(=O)Nc2nc3c(s2)-c2nc(-c4ccccc4Cl)ncc2CC3)C1, O=C(NC[C@@H]1CCCN1)Nc1nc2c(s1)-c1nc(-c3ccccc3Cl)ncc1CC2, CC(C)(C)OC(=O)N1CCCC(CNC(=O)Nc2nc3c(s2)-c2nc(-c4ccccc4Cl)ncc2CC3)C1 (configuration not stated), O=C(NCc1cccc(C(=O)N2CCOCC2)c1)Nc1nc2c(s1)-c1nc(-c3ccccc3Cl)ncc1CC2, CCNC(=O)Nc1nc2c(s1)-c1nc(-c3ccccc3F)ncc1CC2, CC(C)(C)OC(=O)CCNC(=O)Nc1nc2c(s1)-c1nc(-c3ccccc3Cl)ncc1CC2, CC(C)(C)CNC(=O)Nc1nc2c(s1)-c1nc(-c3ccccc3Cl)ncc1CC2, O=C(NCCn1ccnc1)Nc1nc2c(s1)-c1nc(-c3ccccc3Cl)ncc1CC2, O=C(Nc1nc2c(s1)-c1nc(-c3ccccc3Cl)ncc1CC2)N1CCC(c2c[nH]c3ccccc23)CC1, CC(C)(C)OC(=O)N1CCN(c2ccc(NC(=O)Nc3nc4c(s3)-c3nc(-c5ccccc5Cl)ncc3CC4)cc2)CC1, CC(C)COC(=O)N[C@@H]1CCN(C(=O)Nc2nc3c(s2)-c2nc(-c4ccccc4Cl)ncc2CC3)C1, CCc1csc(CCNC(=O)Nc2nc3c(s2)-c2nc(-c4ccccc4Br)ncc2CC3)n1, O=C1CC[C@H](NC(=O)Nc2nc3c(s2)-c2nc(-c4ccccc4Cl)ncc2CC3)CN1, O=C(NCc1cccc(C(=O)NC2CCCCC2)c1)Nc1nc2c(s1)-c1nc(-c3ccccc3Cl)ncc1CC2, Cn1cccc1CCNC(=O)Nc1nc2c(s1)-c1nc(-c3ccccc3Cl)ncc1CC2, O=C(Nc1nc2c(s1)-c1nc(-c3ccccc3Cl)ncc1CC2)NC1CC1, COc1cccc([C@H](C)NC(=O)Nc2nc3c(s2)-c2nc(-c4ccccc4Cl)ncc2CC3)c1, CC(C)(C)OC(=O)NCc1ccccc1NC(=O)Nc1nc2c(s1)-c1nc(-c3ccccc3Cl)ncc1CC2, CC(C)(C)OC(=O)CCNC(=O)Nc1nc2c(s1)-c1nc(-c3ccccc3Br)ncc1CC2, CNC(=O)Nc1nc2c(s1)-c1nc(-c3ccccc3C(F)(F)F)ncc1CC2, CC(C)(C)OC(=O)NC1CCN(C(=O)Nc2nc3c(s2)-c2nc(-c4ccccc4Cl)ncc2CC3)C1 (configuration not stated), O=C(Nc1nc2c(s1)-c1nc(-c3ccccc3Cl)ncc1CC2)N1CCCC1, Cn1cc(CNC(=O)Nc2nc3c(s2)-c2nc(-c4cccc(F)c4Cl)ncc2CC3)cn1, CC(C)CNC(=O)CCNC(=O)Nc1nc2c(s1)-c1nc(-c3ccccc3Cl)ncc1CC2, CC(C)NC(=O)Nc1cccc(CNC(=O)Nc2nc3c(s2)-c2nc(-c4ccccc4Cl)ncc2CC3)c1, O=C(NCCc1nc(C2CC2)no1)Nc1nc2c(s1)-c1nc(-c3ccccc3Cl)ncc1CC2, CN1CCN(C(=O)N[C@H]2CCN(C(=O)Nc3nc4c(s3)-c3nc(-c5ccccc5Cl)ncc3CC4)C2)CC1, O=C(Nc1nc2c(s1)-c1nc(-c3ccccc3Cl)ncc1CC2)N1CCC(n2cnc3ccccc32)CC1, CN(C)C(=O)Nc1nc2c(s1)-c1nc(-c3ccccc3Br)ncc1CC2, CNC(=O)Nc1nc2c(s1)-c1nc(-c3ccccc3F)ncc1CC2, CC(C)OC(=O)N[C@H]1CCN(C(=O)Nc2nc3c(s2)-c2nc(-c4ccccc4Cl)ncc2CC3)C1, CC(=O)N[C@@H]1CCN(C(=O)Nc2nc3c(s2)-c2nc(-c4ccccc4Cl)ncc2CC3)C1, O=C(NCCc1ccc2c(c1)OCO2)Nc1nc2c(s1)-c1nc(-c3ccccc3Cl)ncc1CC2, CC(C)(C)OC(=O)N1CCC[C@H]1CNC(=O)Nc1nc2c(s1)-c1nc(-c3ccccc3Cl)ncc1CC2, CCNC(=O)Nc1nc2c(s1)-c1nc(-c3ccccc3Br)ncc1CC2, CC(C)CNC(=O)Nc1nc2c(s1)-c1nc(-c3cccc(F)c3Cl)ncc1CC2, NC(=O)c1cccc(CNC(=O)Nc2nc3c(s2)-c2nc(-c4ccccc4Cl)ncc2CC3)c1, O=C(NCCc1cn[nH]c1)Nc1nc2c(s1)-c1nc(-c3ccccc3Cl)ncc1CC2, CC(C)(C)OC(=O)N1CCN(c2cccc(NC(=O)Nc3nc4c(s3)-c3nc(-c5ccccc5Cl)ncc3CC4)c2)CC1, O=C(NCCc1ccccc1)Nc1nc2c(s1)-c1nc(-c3ccccc3Cl)ncc1CC2, COC(=O)N[C@H]1CCN(C(=O)Nc2nc3c(s2)-c2nc(-c4ccccc4Cl)ncc2CC3)C1, CC(C)c1nnc(CCNC(=O)Nc2nc3c(s2)-c2nc(-c4ccccc4F)ncc2CC3)o1, CCCn1ccc(CNC(=O)Nc2nc3c(s2)-c2nc(-c4ccccc4Cl)ncc2CC3)n1, O=C(Nc1nc2c(s1)-c1nc(-c3ccccc3Cl)ncc1CC2)N1CCC(N2CCNC2=O)CC1, Cc1ccc(CN2CC(CNC(=O)Nc3nc4c(s3)-c3nc(-c5ccccc5Cl)ncc3CC4)CC2=O)cc1 (configuration not stated), COc1ccccc1C1CCN(C(=O)Nc2nc3c(s2)-c2nc(-c4ccccc4Cl)ncc2CC3)C1 (configuration not stated), O=C(Nc1nc2c(s1)-c1nc(-c3ccccc3Cl)ncc1CC2)N1CCCC(c2ccccc2O)C1 (configuration not stated), O=C(NCCc1cccc(N2CCNC2=O)c1)Nc1nc2c(s1)-c1nc(-c3ccccc3Cl)ncc1CC2, O=C(NCCCN1CCNC1=O)Nc1nc2c(s1)-c1nc(-c3ccccc3Cl)ncc1CC2, CCN1CCC[C@H]1CNC(=O)Nc1nc2c(s1)-c1nc(-c3ccccc3Cl)ncc1CC2, CC(C)CN(C)C(=O)N[C@H]1CCN(C(=O)Nc2nc3c(s2)-c2nc(-c4ccccc4Cl)ncc2CC3)C1, CC(C)NC(=O)Nc1nc2c(s1)-c1nc(-c3cccc(F)c3Cl)ncc1CC2, O=C(NCC1CCOCC1)Nc1nc2c(s1)-c1nc(-c3ccccc3Cl)ncc1CC2, Cc1cccc(CNC(=O)Nc2nc3c(s2)-c2nc(-c4ccccc4Cl)ncc2CC3)c1, CC(C)CNC(=O)N[C@H]1CCN(C(=O)Nc2nc3c(s2)-c2nc(-c4ccccc4Cl)ncc2CC3)C1, CC(C)(C)NC(=O)CCNC(=O)Nc1nc2c(s1)-c1nc(-c3ccccc3Cl)ncc1CC2, CN1CCN(C(=O)Nc2nc3c(s2)-c2nc(-c4ccccc4Cl)ncc2CC3)CC1, CN(C(=O)OC(C)(C)C)C1CCN(C(=O)Nc2nc3c(s2)-c2nc(-c4ccccc4Cl)ncc2CC3)C1 (configuration not stated)
